Laboratory results reported in patent publication US11744273B2, “Sweetness enhancing volatile compositions and methods of increasing perceived sweetness of a comestible” (University of Florida Research Foundation, Inc., priority 2016, dated 2023).

System: perceived sweetness intensity
Experiment: Strawberry consumer panel; initial multiple regression of volatiles against perceived sweetness intensity independent of glucose, fructose or sucrose (Table 5)
Type: in vivo, human
Settings: for relation to sweetness intensity independent of sugars: initial step-wise multiple regression; for FRUCTOSE t RATIO / GLUCOSE t RATIO / SUCROSE t RATIO: standard least squares; for FRUCTOSE t RATIO: sweetness intensity independent of fructose; for GLUCOSE t RATIO: sweetness intensity independent of glucose; for SUCROSE t RATIO: sweetness intensity independent of sucrose
Experimental: Step-wise multiple regressions of all volatile compounds against perceived intensity of sweetness is performed independent of either glucose, fructose, or sucrose concentration, separately (Table 5).
At least 100 grams or seven berries of each sample were removed from 4° C. dark overnight storage prior to volatile collection. Samples were homogenized in a blender prior to splitting into three 15 gram replicates for immediate capturing of volatile emission and remainder of sample frozen in N2 (I) and stored at −80° C. for later sugar and acid quantification.
Oven temperatures programmed from 40° C. (0.5 min hold) at 5° C. min^−1 to 250° C. (4 min hold). Signals captured with a flame ionization detector (FID) at 280° C. Peaks from FID signal were integrated manually with Chemstation B.04.01 software (Agilent Technologies, Santa Clara, Calif.). Volatile emission (ng gFW^−1 h^−1) calculated based on individual peak area relative to sample elution standard peak area.
All consumer panels were approved by the University of Florida Institutional Review Board. […] Ages of panelist ranged from 18 to 71, with a median age of 24. Panelists self-classified themselves as 98 White or Caucasian, 11 Black or African-American, 1 Native American, Alaska Native or Aleutian, 41 Asian/Pacific Islander, and 15 Other. […] Fresh, fully-ripe strawberry fruit was removed from overnight 4° C. dark storage and allowed to warm to room temperature prior to sensory analysis. Each panelist was given one to two whole strawberries for evaluation, depending on cultivar availability. Panelist took a bite of each sample, chewed, and swallowed it. Ratings for overall liking and liking for texture were scaled on hedonic general labeled magnitude scale (gLMS) in the context of all pleasure/displeasure experiences. […] Scales were employed to mediate valid comparisons across subjects and sessions.
For the first analysis, individual volatile compound concentrations were regressed using the “enter” method in SPSS Statistics (IBM Corp, Armonk, N.Y., USA).

## C=CC(=O)CC [1-penten-3-one]
  relation to sweetness intensity independent of sugars: enhance sweetness intensity

## CCCCCC=O [66-25-1]
  FRUCTOSE t RATIO: 1.229
  GLUCOSE t RATIO: 1.178
  SUCROSE t RATIO: 0.21

## CCCCCO [71-41-0]
  FRUCTOSE t RATIO: 0.448
  GLUCOSE t RATIO: 0.296
  SUCROSE t RATIO: 1.938

## CCCCC(=O)C(C)=O [96-04-8]
  FRUCTOSE t RATIO: 0.142
  GLUCOSE t RATIO: 0.002
  SUCROSE t RATIO: −0.646

## CCC(=O)CC [96-22-0]
  FRUCTOSE t RATIO: 1.82
  GLUCOSE t RATIO: 1.576
  SUCROSE t RATIO: 0.912

## CCCCC(CC)COC(C)=O (stereo not drawn) [103-09-3]
  FRUCTOSE t RATIO: 0.172
  GLUCOSE t RATIO: 0.21
  SUCROSE t RATIO: −1.053

## CCCCC(CC)CO (stereo not drawn) [104-76-7]
  FRUCTOSE t RATIO: 1.189
  GLUCOSE t RATIO: 0.982
  SUCROSE t RATIO: 2.046

## CCOC(=O)CC [105-37-3]
  FRUCTOSE t RATIO: −0.623
  GLUCOSE t RATIO: −0.674
  SUCROSE t RATIO: 1.964

## CCCOC(=O)CCC [105-66-8]
  FRUCTOSE t RATIO: 0.88
  GLUCOSE t RATIO: 0.638
  SUCROSE t RATIO: 2.421

## CCCCCCCC(=O)OCC [106-32-1, ethyl octanoate]
  relation to sweetness intensity independent of sugars: negatively related to sweetness

## CC(=O)CC(C)C [108-10-1, 4-Methyl-2-pentanone]
  relation to sweetness intensity independent of sugars: negatively related to sweetness

## CCCCOC(=O)CC(C)C [109-19-3]
  FRUCTOSE t RATIO: 2.005
  GLUCOSE t RATIO: 1.954
  SUCROSE t RATIO: 1.662

## CCCCOC(=O)CCC [109-21-7]
  FRUCTOSE t RATIO: 2.181
  GLUCOSE t RATIO: 1.961
  SUCROSE t RATIO: 1.65

## CCCOC(C)=O [109-60-4]
  FRUCTOSE t RATIO: −0.491
  GLUCOSE t RATIO: −0.454
  SUCROSE t RATIO: −0.224

## CCCCCCCCCC(=O)OCC [110-38-3]
  FRUCTOSE t RATIO: 0.281
  GLUCOSE t RATIO: 0.055
  SUCROSE t RATIO: 2.621

## CCCCCCCCOC(=O)CCC [110-39-4]
  FRUCTOSE t RATIO: 0.96
  GLUCOSE t RATIO: 0.814
  SUCROSE t RATIO: 2.645

## CCCCC=O [110-62-3]
  FRUCTOSE t RATIO: −0.572
  GLUCOSE t RATIO: −0.568
  SUCROSE t RATIO: 0.997

## CCCCCCC=O [111-71-7]
  FRUCTOSE t RATIO: 2.599
  GLUCOSE t RATIO: 2.283
  SUCROSE t RATIO: 1.342

## CCCCCCCCOC(C)=O [112-14-1]
  FRUCTOSE t RATIO: 0.413
  GLUCOSE t RATIO: 0.284
  SUCROSE t RATIO: 2.292

## CCCCCC(=O)OCC [123-66-0]
  FRUCTOSE t RATIO: 0.066
  GLUCOSE t RATIO: −0.001
  SUCROSE t RATIO: 1.064

## CC(=O)OCCC(C)C [123-92-2]
  FRUCTOSE t RATIO: −0.725
  GLUCOSE t RATIO: −0.771
  SUCROSE t RATIO: 0.108

## CCCCCCCC=O [124-13-0]
  FRUCTOSE t RATIO: 0.871
  GLUCOSE t RATIO: 0.685
  SUCROSE t RATIO: 0.169

## CCCCCCCCC=O [124-19-6]
  FRUCTOSE t RATIO: 3.696
  GLUCOSE t RATIO: 3.402
  SUCROSE t RATIO: 0.226

## Cc1cc(C(C)(C)C)c(O)c(C(C)(C)C)c1 [128-37-0]
  FRUCTOSE t RATIO: −0.856
  GLUCOSE t RATIO: −1.17
  SUCROSE t RATIO: 0.482

## COC(=O)c1ccccc1N [134-20-3]
  FRUCTOSE t RATIO: −0.009
  GLUCOSE t RATIO: 0.2
  SUCROSE t RATIO: 1.386

## CC(=O)OCc1ccccc1 [140-11-4]
  FRUCTOSE t RATIO: −0.361
  GLUCOSE t RATIO: −0.513
  SUCROSE t RATIO: −1.357

## CCCCC(=O)OCC [539-82-2]
  FRUCTOSE t RATIO: −0.48
  GLUCOSE t RATIO: −0.802
  SUCROSE t RATIO: 2.273

## CCCCCOC(=O)CCC [540-18-1, pentyl butyrate]
  relation to sweetness intensity independent of sugars: enhance sweetness intensity

## CC1(C)C2CC=C(C=O)C1C2 (stereo not drawn) [564-94-3]
  FRUCTOSE t RATIO: 2.588
  GLUCOSE t RATIO: 2.455
  SUCROSE t RATIO: −1.322

## CCCC(=O)CC [589-38-8]
  FRUCTOSE t RATIO: −0.217
  GLUCOSE t RATIO: −0.427
  SUCROSE t RATIO: 0.592

## CCCCC(C)=O [591-78-6]
  FRUCTOSE t RATIO: 2.807
  GLUCOSE t RATIO: 2.788
  SUCROSE t RATIO: 0.767

## C=CC(O)CC (stereo not drawn) [616-25-1]
  FRUCTOSE t RATIO: 1.773
  GLUCOSE t RATIO: 1.628
  SUCROSE t RATIO: 0.795

## C/C=C/C(=O)OC [623-43-8]
  FRUCTOSE t RATIO: 0.248
  GLUCOSE t RATIO: 0.54
  SUCROSE t RATIO: −1.396

## CCCCC(=O)OC [624-24-8]
  FRUCTOSE t RATIO: −0.406
  GLUCOSE t RATIO: −0.416
  SUCROSE t RATIO: 0.662

## CCC(C)COC(C)=O (stereo not drawn) [624-41-9]
  FRUCTOSE t RATIO: −0.433
  GLUCOSE t RATIO: −0.494
  SUCROSE t RATIO: −1.323

## CCCCCOC(C)=O [628-63-7]
  FRUCTOSE t RATIO: 0.882
  GLUCOSE t RATIO: 0.749
  SUCROSE t RATIO: 0.427

## CCCCCCC1CCC(=O)O1 (stereo not drawn) [706-14-9]
  FRUCTOSE t RATIO: 1.247
  GLUCOSE t RATIO: 0.879
  SUCROSE t RATIO: 1.65

## CCC/C=C/CO [928-95-0]
  FRUCTOSE t RATIO: −1.842
  GLUCOSE t RATIO: −1.521
  SUCROSE t RATIO: −0.516

## CSC(C)=O [1534-08-3]
  FRUCTOSE t RATIO: 0.488
  GLUCOSE t RATIO: 0.429
  SUCROSE t RATIO: 1.035

## CC/C=C\C=O [1576-86-9]
  FRUCTOSE t RATIO: 4.16
  GLUCOSE t RATIO: 3.915
  SUCROSE t RATIO: 0.935

## CC/C=C/C=O [1576-87-0]
  FRUCTOSE t RATIO: 4.566
  GLUCOSE t RATIO: 4.301
  SUCROSE t RATIO: 1.024

## CCCCCCCCC1CCC(=O)O1 (stereo not drawn) [2305-05-7, 5-octyldihydro-2(3H)-furanone]
  relation to sweetness intensity independent of sugars: enhance sweetness intensity

## CCCCCC(=O)OC(C)C [2311-46-8]
  FRUCTOSE t RATIO: 0.238
  GLUCOSE t RATIO: −0.058
  SUCROSE t RATIO: 2.211

## CCCC(=O)SC [2432-51-1]
  FRUCTOSE t RATIO: −0.956
  GLUCOSE t RATIO: −1.092
  SUCROSE t RATIO: 2.033

## CCC/C=C/COC(C)=O [2497-18-9]
  FRUCTOSE t RATIO: −0.313
  GLUCOSE t RATIO: −0.331
  SUCROSE t RATIO: −0.056

## CCCCC/C=C/C=O [2548-87-0]
  FRUCTOSE t RATIO: 1.76
  GLUCOSE t RATIO: 1.509
  SUCROSE t RATIO: 0.067

## CCCCCCOC(=O)CCC [2639-63-6, hexyl butyrate]
  relation to sweetness intensity independent of sugars: enhance sweetness intensity

## CCCCCCC/C=C/C=O [3913-81-3]
  FRUCTOSE t RATIO: 3.694
  GLUCOSE t RATIO: 3.494
  SUCROSE t RATIO: 1.411

## CCCCCCCCOC(=O)CCCCC [4887-30-3]
  FRUCTOSE t RATIO: 0.392
  GLUCOSE t RATIO: 0.254
  SUCROSE t RATIO: 2.71

## CCCCCCCCCCOC(=O)CCC [5454-09-1]
  FRUCTOSE t RATIO: 1.804
  GLUCOSE t RATIO: 1.579
  SUCROSE t RATIO: 2.085

## CCCCCC(CC)CC [5881-17-4]
  FRUCTOSE t RATIO: 2.894
  GLUCOSE t RATIO: 2.662
  SUCROSE t RATIO: 0.608

## C=C[C@]1(C)CC[C@H](C(C)(C)O)O1 [5989-33-3]
  FRUCTOSE t RATIO: 1.869
  GLUCOSE t RATIO: 1.561
  SUCROSE t RATIO: 1.953

## CCOC(=O)C(C)CC (stereo not drawn) [7452-79-1]
  FRUCTOSE t RATIO: 1.959
  GLUCOSE t RATIO: 1.993
  SUCROSE t RATIO: −0.785
